Reference: patent US20090318351A1, “METHOD OF TREATING ACUTE ST-ELEVATION MYOCARDIAL INFARCTION WITH A DELTA PKC ANTAGONIST” (priority 2008, published 2009)

Assay: Plasma stability of capped peptides (KAI-9706 modified at amino and carboxy termini)
Settings: rat
Procedure: Plasma stability of capped peptides was compared. KAI-9706 was modified step-wise at its amino and carboxy termini. Plasma stability as measured by the percent of peptide composition remaining after 15 minutes.

SMILES	remaining at 0.25 h [%]
CC[C@H](C)[C@H](NC(=O)[C@@H]1CCCN1C(=O)[C@H](C)NC(=O)[C@H](CC(=O)O)NC(=O)[C@H](Cc1c[nH]cn1)NC(=O)[C@@H](N)CSSC[C@H](NC(C)=O)C(=O)N[C@@H](Cc1ccc(O)cc1)C(=O)NCC(=O)N[C@@H](CCCNC(=N)N)C(=O)N[C@@H](CCCCN)C(=O)N[C@@H](CCCCN)C(=O)N[C@@H](CCCNC(=N)N)C(=O)N[C@@H](CCCNC(=N)N)C(=O)N[C@@H](CCC(N)=O)C(=O)N[C@@H](CCCNC(=N)N)C(=O)N[C@@H](CCCNC(=N)N)C(=O)N[C@@H](CCCNC(=N)N)C(N)=O)C(=O)NCC(=O)N[C@@H](Cc1ccc(O)cc1)C(=O)N[C@@H](CC(=O)O)C(N)=O [KAI-9706 carrier Ac—NH2 cargo H—NH2]	90
CC[C@H](C)[C@H](NC(=O)[C@@H]1CCCN1C(=O)[C@H](C)NC(=O)[C@H](CC(=O)O)NC(=O)[C@H](Cc1c[nH]cn1)NC(=O)[C@H](CSSC[C@H](NC(C)=O)C(=O)N[C@@H](Cc1ccc(O)cc1)C(=O)NCC(=O)N[C@@H](CCCNC(=N)N)C(=O)N[C@@H](CCCCN)C(=O)N[C@@H](CCCCN)C(=O)N[C@@H](CCCNC(=N)N)C(=O)N[C@@H](CCCNC(=N)N)C(=O)N[C@@H](CCC(N)=O)C(=O)N[C@@H](CCCNC(=N)N)C(=O)N[C@@H](CCCNC(=N)N)C(=O)N[C@@H](CCCNC(=N)N)C(=O)O)NC(C)=O)C(=O)NCC(=O)N[C@@H](Cc1ccc(O)cc1)C(=O)N[C@@H](CC(=O)O)C(N)=O [KAI-9706 carrier Ac—OH cargo Ac—NH2]	48
CC[C@H](C)[C@H](NC(=O)[C@@H]1CCCN1C(=O)[C@H](C)NC(=O)[C@H](CC(=O)O)NC(=O)[C@H](Cc1c[nH]cn1)NC(=O)[C@H](CSSC[C@H](NC(C)=O)C(=O)N[C@@H](Cc1ccc(O)cc1)C(=O)NCC(=O)N[C@@H](CCCNC(=N)N)C(=O)N[C@@H](CCCCN)C(=O)N[C@@H](CCCCN)C(=O)N[C@@H](CCCNC(=N)N)C(=O)N[C@@H](CCCNC(=N)N)C(=O)N[C@@H](CCC(N)=O)C(=O)N[C@@H](CCCNC(=N)N)C(=O)N[C@@H](CCCNC(=N)N)C(=O)N[C@@H](CCCNC(=N)N)C(N)=O)NC(C)=O)C(=O)NCC(=O)N[C@@H](Cc1ccc(O)cc1)C(=O)N[C@@H](CC(=O)O)C(N)=O [KAI-9706 carrier Ac—NH2 cargo Ac—NH2]	90
CC[C@H](C)[C@H](NC(=O)[C@@H]1CCCN1C(=O)[C@H](C)NC(=O)[C@H](CC(=O)O)NC(=O)[C@H](Cc1c[nH]cn1)NC(=O)[C@H](CSSC[C@H](NC(C)=O)C(=O)N[C@@H](Cc1ccc(O)cc1)C(=O)NCC(=O)N[C@@H](CCCNC(=N)N)C(=O)N[C@@H](CCCCN)C(=O)N[C@@H](CCCCN)C(=O)N[C@@H](CCCNC(=N)N)C(=O)N[C@@H](CCCNC(=N)N)C(=O)N[C@@H](CCC(N)=O)C(=O)N[C@@H](CCCNC(=N)N)C(=O)N[C@@H](CCCNC(=N)N)C(=O)N[C@@H](CCCNC(=N)N)C(N)=O)NC(C)=O)C(=O)NCC(=O)N[C@@H](Cc1ccc(O)cc1)C(=O)N[C@@H](CC(=O)O)C(=O)O [KAI-9706 carrier Ac—NH2 cargo Ac—OH]	93
CC[C@H](C)[C@H](NC(=O)[C@@H]1CCCN1C(=O)[C@H](C)NC(=O)[C@H](CC(=O)O)NC(=O)[C@H](Cc1c[nH]cn1)NC(=O)[C@@H](N)CSSC[C@H](N)C(=O)N[C@@H](Cc1ccc(O)cc1)C(=O)NCC(=O)N[C@@H](CCCNC(=N)N)C(=O)N[C@@H](CCCCN)C(=O)N[C@@H](CCCCN)C(=O)N[C@@H](CCCNC(=N)N)C(=O)N[C@@H](CCCNC(=N)N)C(=O)N[C@@H](CCC(N)=O)C(=O)N[C@@H](CCCNC(=N)N)C(=O)N[C@@H](CCCNC(=N)N)C(=O)N[C@@H](CCCNC(=N)N)C(N)=O)C(=O)NCC(=O)N[C@@H](Cc1ccc(O)cc1)C(=O)N[C@@H](CC(=O)O)C(=O)O [KAI-9706 carrier H—NH2 cargo H—OH]	60
CC[C@H](C)[C@H](NC(=O)[C@@H]1CCCN1C(=O)[C@H](C)NC(=O)[C@H](CC(=O)O)NC(=O)[C@H](Cc1c[nH]cn1)NC(=O)[C@H](CSSC[C@H](N)C(=O)N[C@@H](Cc1ccc(O)cc1)C(=O)NCC(=O)N[C@@H](CCCNC(=N)N)C(=O)N[C@@H](CCCCN)C(=O)N[C@@H](CCCCN)C(=O)N[C@@H](CCCNC(=N)N)C(=O)N[C@@H](CCCNC(=N)N)C(=O)N[C@@H](CCC(N)=O)C(=O)N[C@@H](CCCNC(=N)N)C(=O)N[C@@H](CCCNC(=N)N)C(=O)N[C@@H](CCCNC(=N)N)C(=O)O)NC(C)=O)C(=O)NCC(=O)N[C@@H](Cc1ccc(O)cc1)C(=O)N[C@@H](CC(=O)O)C(=O)O [KAI-9706 carrier H—OH cargo Ac—OH]	1
CC[C@H](C)[C@H](NC(=O)[C@@H]1CCCN1C(=O)[C@H](C)NC(=O)[C@H](CC(=O)O)NC(=O)[C@H](Cc1c[nH]cn1)NC(=O)[C@H](CSSC[C@H](N)C(=O)N[C@@H](Cc1ccc(O)cc1)C(=O)NCC(=O)N[C@@H](CCCNC(=N)N)C(=O)N[C@@H](CCCCN)C(=O)N[C@@H](CCCCN)C(=O)N[C@@H](CCCNC(=N)N)C(=O)N[C@@H](CCCNC(=N)N)C(=O)N[C@@H](CCC(N)=O)C(=O)N[C@@H](CCCNC(=N)N)C(=O)N[C@@H](CCCNC(=N)N)C(=O)N[C@@H](CCCNC(=N)N)C(N)=O)NC(C)=O)C(=O)NCC(=O)N[C@@H](Cc1ccc(O)cc1)C(=O)N[C@@H](CC(=O)O)C(N)=O [KAI-9706 carrier H—NH2 cargo Ac—NH2]	51
CC[C@H](C)[C@H](NC(=O)[C@@H]1CCCN1C(=O)[C@H](C)NC(=O)[C@H](CC(=O)O)NC(=O)[C@H](Cc1c[nH]cn1)NC(=O)[C@@H](N)CSSC[C@H](N)C(=O)N[C@@H](Cc1ccc(O)cc1)C(=O)NCC(=O)N[C@@H](CCCNC(=N)N)C(=O)N[C@@H](CCCCN)C(=O)N[C@@H](CCCCN)C(=O)N[C@@H](CCCNC(=N)N)C(=O)N[C@@H](CCCNC(=N)N)C(=O)N[C@@H](CCC(N)=O)C(=O)N[C@@H](CCCNC(=N)N)C(=O)N[C@@H](CCCNC(=N)N)C(=O)N[C@@H](CCCNC(=N)N)C(=O)O)C(=O)NCC(=O)N[C@@H](Cc1ccc(O)cc1)C(=O)N[C@@H](CC(=O)O)C(N)=O [KAI-9706 carrier H—OH cargo H—NH2]	0
CC[C@H](C)[C@H](NC(=O)[C@@H]1CCCN1C(=O)[C@H](C)NC(=O)[C@H](CC(=O)O)NC(=O)[C@H](Cc1c[nH]cn1)NC(=O)[C@@H](N)CSSC[C@H](NC(C)=O)C(=O)N[C@@H](Cc1ccc(O)cc1)C(=O)NCC(=O)N[C@@H](CCCNC(=N)N)C(=O)N[C@@H](CCCCN)C(=O)N[C@@H](CCCCN)C(=O)N[C@@H](CCCNC(=N)N)C(=O)N[C@@H](CCCNC(=N)N)C(=O)N[C@@H](CCC(N)=O)C(=O)N[C@@H](CCCNC(=N)N)C(=O)N[C@@H](CCCNC(=N)N)C(=O)N[C@@H](CCCNC(=N)N)C(=O)O)C(=O)NCC(=O)N[C@@H](Cc1ccc(O)cc1)C(=O)N[C@@H](CC(=O)O)C(=O)O [KAI-9706 carrier Ac—OH cargo H—OH]	57
CC[C@H](C)[C@H](NC(=O)[C@@H]1CCCN1C(=O)[C@H](C)NC(=O)[C@H](CC(=O)O)NC(=O)[C@H](Cc1c[nH]cn1)NC(=O)[C@@H](N)CSSC[C@H](NC(C)=O)C(=O)N[C@@H](Cc1ccc(O)cc1)C(=O)NCC(=O)N[C@@H](CCCNC(=N)N)C(=O)N[C@@H](CCCCN)C(=O)N[C@@H](CCCCN)C(=O)N[C@@H](CCCNC(=N)N)C(=O)N[C@@H](CCCNC(=N)N)C(=O)N[C@@H](CCC(N)=O)C(=O)N[C@@H](CCCNC(=N)N)C(=O)N[C@@H](CCCNC(=N)N)C(=O)N[C@@H](CCCNC(=N)N)C(N)=O)C(=O)NCC(=O)N[C@@H](Cc1ccc(O)cc1)C(=O)N[C@@H](CC(=O)O)C(=O)O [KAI-9706 carrier Ac—NH2 cargo H—OH]	92
CC[C@H](C)[C@H](NC(=O)[C@@H]1CCCN1C(=O)[C@H](C)NC(=O)[C@H](CC(=O)O)NC(=O)[C@H](Cc1c[nH]cn1)NC(=O)[C@H](CSSC[C@H](N)C(=O)N[C@@H](Cc1ccc(O)cc1)C(=O)NCC(=O)N[C@@H](CCCNC(=N)N)C(=O)N[C@@H](CCCCN)C(=O)N[C@@H](CCCCN)C(=O)N[C@@H](CCCNC(=N)N)C(=O)N[C@@H](CCCNC(=N)N)C(=O)N[C@@H](CCC(N)=O)C(=O)N[C@@H](CCCNC(=N)N)C(=O)N[C@@H](CCCNC(=N)N)C(=O)N[C@@H](CCCNC(=N)N)C(=O)O)NC(C)=O)C(=O)NCC(=O)N[C@@H](Cc1ccc(O)cc1)C(=O)N[C@@H](CC(=O)O)C(N)=O [KAI-9706 carrier H—OH cargo Ac—NH2]	0
